These results are taken from patent US9839674B2, “Methods of inducing indolamine 2,3—dioxygenase (IDO)” (IDOGEN AB, priority 2010, dated 2017).

The test system of assay [1] is IDO1 expression in THP-1 cells. Put plainly: IDO1 expression in THP-1 cells by PCR / quantitative real-time PCR. The assay is classed as cell-based, human. As to conditions: for IDO1 expression (relative value): zebularine 100 uM, interferon gamma 200 IU/ml, alone or both together, FIG. 1. The procedure: (§1) THP-1 (ATCC: TIB-202) is a human monocytic cell line that originates from an acute monocytic leukemia. It has the phenotype of monocytes but can be differentiated to a more dendritic phenotype. In the current study, the THP-1 cells were in vitro passaged in RPMI 1640 medium supplemented with 5% or 10% FCS, 10 mM Hepes, 1 mM Sodium pyruvate, and 50 ug/ml gentamicin (R5 or R10 medium respectively). The cell density was adjusted to 200 000 cells per ml, and the cultures were incubated for four to seven days at 37° C. with 10% CO2 in a humidified incubator. The substance, or combination of substances, being studied, were added to the medium at specified time points and in the case of IFN-gamma removed from medium as indicated. 96-168 hours after initiation of treatment, the IDO expression was assessed by PCR or by Quantitative PCR (Roche). RNA was extracted from cells cultured in flasks or six-well plates using Trizol reagent according to Invitrogen's protocol. Residual DNA was removed through Rnase free DNase (Roche Applied Science) treatment. Quality and quantity of the isolated RNA was measured by spectrophotometer and gel electrophoresis.
Quantitative real-time PCR analyses (qRT-PCR) were performed using Super-Script III Platinum Two-Step qRT-PCR Kit with SYBR Green (Invitrogen). A total of 100-500 ng total RNA was used in a 20 ul RT reaction using a mixture of polydT and random hexamer primers. The cDNA obtained was diluted to a total volume of 80 ul and stored at −20° C. The primer sequences for the different genes were designed using Gene Fisher software support (G. Giegerich, F. Meyer, C. Schleiermacher, ISMB-96). The primers used for amplification of the IDO gene were: Forward: SEQ ID NO: 5—5′-[…]-3′, Primer sequences, Reverse: SEQ ID NO: 6—TTTCACA-CAGGCGTCATAAGCT-3′.
Hypoxanthine guanine phosphoribosyl transferase (HPRT) HPRT Forward: SEQ ID NO: 7—5′-[…]-3′, HPRT Reverse: SEQ ID NO: 8—5′-[…]-3′ according to the cDNA sequence, were used. The qRT-PCR was performed in 20 ul reaction consisting of 2 ul diluted cDNA (12.5 ng), 0.3 uM of each primer, 1 ul bovine serum albumin (50 ug/ml), and 10 ul Platinum SYBR Green qRT-PCR superMix-UDG. The amplification of IDO was carried out in a Light Cycler (Roche Molecular Biochemicals) with the following thermal profile: Platinum SYBR Green qRT-PCR superMix-UDG incubation at 50° C. for 2 min, then denaturing at 95° C. for 5 min, followed by 45 cycles at 94° C. for 2 s, 58° C. for 10 s, and 72° C. for 14 s. The amplification of HPRT was carried out as follows, UDG incubation at 50° C. for 2 min, denaturing at 95° C. for 5 min, followed by 45 cycles at 94° C. for 2 s, 55° C. for 10 s, and 72° C. for 14 s. After amplification a melting curve analysis was performed. The qRT-PCR experiments were always run in triplicate.

Assay [2] has as its system IDO1 expression in THP-1 cells. Put plainly: IDO1 expression in THP-1 cells by reverse transcriptase PCR (bands), kinetics. The assay is classed as cell-based, human. On the procedure: as §1
The sequences of forward primers and reverse primers for the human IDO-1 gene analyzed and the house-keeping gene HPRT respectively, were: IDO-1 forward: 5′-[…]-3′, reverse: 5′-C AGAC AAAT AT A TGCGAAGAAC; HPRT Forward: 5′-[…]-3′, HPRT Reverse: 5′-ACTAAGCAGATGGCCAC AGAA-3′. The PCR conditions were set as follows: 1 denaturing cycle at 94° C. for 2 min followed by 40 cycles (for the IDO-1) or 30 cycles (for the HPRT) at 94° C. for 15 s, 53° C. for 30 s, and 72° C. for 30 s with a final extension reaction at 72° C. for 5 min.
Materials and methods used were the same as described in Example 1 above. […] In panel B, the THP-1 cells were given zebularine alone during 5 days and a weak band was detected. […] In panel C the THP-1 cells were exposed to zebularine for 6 days and interferon gamma was given during 24 hours after four days and the cells were harvested after a total of 6 days. […]

Assay [3] relates to allotransplanted Lewis rat pancreatic islets. Put plainly: Rejection of allotransplanted pancreatic islets beneath the kidney capsule (blood glucose follow up). The assay is classed as in vivo. As to conditions: Fischer 344 rats, 225 mg/kg intraperitoneal daily for 14 days starting 6-8 days after transplantation, FIG. 16. The procedure: Pancreatic islets were isolated from the pancreas of Lewis rats by established technique. After culture at 37° C. over night, 500-1200 islets were implanted beneath the kidney capsule of adult (11-14 weeks old) Fischer 344 rats that were confirmed hyperglucemic (blood glucose >20 mMol/L) after having received a single dose of 35-40 mg/kg intraperitoneally of Streptozotocine, which is selectively toxic to the insulin producing beta cells present in the pancreatic islets. […] The two exceptional rats that maintained a normal blood sugar were subjected to nephrectomy 40 and 43 days after transplantation to check whether their normal blood glucose was a result of unexpected sustained survival of the grafted islets (in which case their blood sugar should promptly increase upon removal of the graft) or was due to a recovery of some Streptozotocine-damaged pancreatic islets (in which case their blood sugar should stay normal despite removal of the graft). […] Twenty two days after transplantation only 1/10 of the zebularine treated rats had rejected the graft as indicated by a normal blood sugar in all but this single rat at completion of the treatment 20-22 days after transplantation and in all of 7 analyzed >1 week after the zebularine treatment was stopped (FIG. 16).

Setting [4] is: IFN-g 100 iu/ml or IFN-A alone for 24 h (day 4), FIG. 11.
Where [5] appears, read: IFN-g 100 iu/ml or interferon A 25 ng/ml alone for 24 h (day 4), FIG. 12.

“interferon gamma: interferon gamma (Sigma), IDO inducer”: the “IDO1 expression after 168 h of culture” value in assay [1] (setting [4]) and in assay [1] (setting [5]) was “minimal” in each case. In addition, the “course of IDO1 induction after the first 24 hours” value in assay [1] (interferon gamma 200 IU/ml initial 24 h, alone or with zebularine 100 uM for the entire period, harvest 48-96 h, FIG. 5) was “not sustained and dropped rapidly”. Besides, the “IDO1 expression after 10, 12 or 14 days of culture” value in assay [1] (interferon gamma 200 iu/ml alone for 24 h on day 4, FIG. 10) is on record as “minimal”. Also, the “IDO1 induction after 24 hours” value in assay [1] (zebularine 100 uM or interferon gamma 200 IU/ml alone, harvest 24 h, FIG. 5) is on record as “strong”. The “IDO1 expression (relative value)” value in assay [1] amounted to 80. The “IDO1 expression (RT-PCR band), panel B” value in assay [2] (zebularine 5 days, interferon gamma after 3 days for 24 h, tested 24 hours after removal, FIG. 6B) is given as “weak band”. The “IDO1 expression (RT-PCR band), panel C” value in assay [2] (zebularine 6 days, interferon gamma 24 hours after four days, harvest after 6 days, FIG. 6C) is “almost no IDO1 induction”. In assay [2] (zebularine four days, interferon gamma added after 3 days, 24 hours before harvest, FIG. 6A), the “IDO1 expression (RT-PCR band), panel A” value is on record as “strong band”.

On to interferon A, for which the “IDO1 expression after 168 h of culture” value in assay [1] (setting [4]) and in assay [1] (setting [5]) was “minimal” each time.

Turning to `O=c1ncccn1[C@@H]1O[C@H](CO)[C@@H](O)[C@H]1O` [zebularine, reference compound], the “IDO1 expression (relative value)” value in assay [1] was 9. In addition, the “rats that had rejected the graft twenty two days after transplantation” value in assay [3] is listed as 1/10.
